According to patent US10336792B2, “Antimicrobial peptide dendrimers” (priority 2014, dated 2019):
Values after ≈ are worked out from the molar mass of the structure shown. Positions of bridges follow the written chain, without caps; N, C: chain ends. Non-standard residues stand in square brackets, D forms with d. Residues, ends and D or L forms follow the SMILES beside them. Groups on a side chain read outwards from the residue. Chains are numbered I, II in the order given. *: point of attachment. Decanoyl = CCCCCCCCCC(=O)*; Orn = NCCC[C@H](N)C(=O)O; Dab = NCC[C@H](N)C(=O)O

Columns and labels:
[1] = tested on: P. aeruginosa PEJ2.6, PEJ9.1, ZEM1.A, ZEM9.A (clinical isolates); type: cell-based, Pseudomonas aeruginosa; settings: PEJ2.6, PEJ9.1, ZEM1.A, ZEM9.A (clinical isolates)
Method: (§1) Antimicrobial activity was assayed against P. aeruginosa PA01 (WT), P. aeruginosa PT1482 (A-), PT1485 (A-B-), PT1149 (A-B-C-algC), PT331 (Z61) (LPS mutants), P. aeruginosa PEJ2.6, PEJ9.1, ZEM1.A, ZEM9.A (clinical isolates from Université de Genève/Centre Médical Universitaire), Burkholderia cenocepacia (B. ceno), Staphylococcus aureus (S. aureus, MRSA strain) and Acinetobacter baumannii (A. baum) (clinical isolates from Université de Genève/Centre Médical Universitaire). To determine the minimal inhibitory concentration (MIC), microdilution broth method was used. A colony of bacteria was grown in MH-medium overnight at 37° C. The samples were prepared as stock solutions of 8 mg mL^−1 in H2O, diluted to the beginning concentration of 32, 64, 128 or 256 μg/mL in 300 μL MH-medium, added to the first well of 96-well microtiterplate (TPP, untreated) and diluted serially by ½. The concentration of the bacteria was quantified by measuring absorbance at 600 nm and diluted to OD600=0.022 in MH-medium. The sample solutions (150 μL) were mixed with 4 μL diluted bacterial suspension with a final inoculation of about of 5×10^5 CFU. The plates were incubated at 37° C. until satisfactory growth (˜18 h). For each test, two columns of the plate were kept for sterility control (SC, broth only) and growth control (GC, broth with bacterial inoculums, no antibiotics). The minimal inhibitory concentration (MIC) was defined as the lowest concentration of the antimicrobial substance (peptide dendrimer) that inhibited visible growth of the tested bacteria with the unaided eye. For microbiological study Polymyxin was used as references.
(§2) Ten of the most promising compounds (FIG. 5) were tested for their efficiency against four clinical isolates of P. aeruginosa (ZEM9.A, ZEM1.A, PEJ2.6, PEJ9.1), one S. aureus (COL, MRSA reference strain) and one A. baumannii strain. For the experiments in Genève the peptide dendrimers and reference compounds (polymyxin) were dissolved in PBS and the assay was carried out in Müller-Hinton (MH) broth with a two-fold dilution.

P. aeruginosa PA01 (WT) = type: cell-based, Pseudomonas aeruginosa; settings: WT
Method: as §1

PAO1 = type: cell-based, Pseudomonas aeruginosa; settings: PAO1
Method: as §1

Acinetobacter baumannii = type: cell-based
Method: as §1, §2

[2] = tested on: Staphylococcus aureus (COL, MRSA reference strain); type: cell-based; settings: COL, reference strain
Method: as §1, §2

[3] = tested on: Pseudomonas aeruginosa (strain PA01); assay: microbe, parasite or virus in culture; type: cell-based; settings: LB medium, serial 2/3 dilution, 37 °C, 18-24 h
Outline: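 Broth microdilution MIC against P. aeruginosa PAO1 in LB: peptides serially diluted by ⅔, bacteria added at OD600 0.001 and incubated 18–24 h at 37 °C. MTT added; MIC is the lowest concentration preventing visible growth.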

[4] = tested on: Bacillus subtilis (strain BR151); type: cell-based; settings: LB medium
Outline: (§3)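 Broth microdilution MIC in LB; overnight cultures diluted to OD600 0.001 and mixed 1:1 with ⅔-serially diluted samples (stock 1 mg mL^−1 in H2O), 37° C for 18-24 h. MTT (0.1%) added; MIC read by eye as lowest concentration inhibiting visible growth (yellow).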

[5] = tested on: human red blood cells (hRBC); assay: Haemolysis assay, minimal haemolytic concentration (MHC); type: cell-based; settings: hRBC in PBS pH 7.4, 4 h, room temperature
Method: To determine the minimal haemolytic concentration (MHC) stock solutions of 8 mg/mL of the peptide dendrimers in H2O were prepared and 50 μL were diluted serially by ½ in 50 μL PBS (pH 7.4) in 96-well plate (Cornstar or Nunc, polystyrene, untreated). Human red blood cells (hRBC) were obtained by centrifuging 1.5 mL of whole blood from friendly donors at 3000 rpm for 15 minutes. Plasma was discarded and the pellet was re-suspended in a 15 mL falcon tube up to 5 mL of PBS. The washing was repeated three times and the remaining pellet was re-suspended in 10 mL of PBS at a final hRBC concentration of 5%. The hRBC suspension (50 μL) was added to each well and the plate was incubated at room temperature for 4 hours. Minimal haemolytic concentration (MHC) end points were determined by visual inspection of the wells after the incubation period. Controls on each plate included a blank medium control (50 μl PBS+50 μl of hRBC suspension) and a haemolytic activity control (mQ-deionized water 50 μL+50 μL hRBC suspension).
MIC (minimal inhibitory concentration) and MHC (minimal haemolytic concentration, determined on human red blood cells (hRBC)) values are given in μg/mL. When no detectable haemolytic activity was observed, the last measured concentration was used for calculation of the therapeutic index. TI (therapeutic index)=MHC (μg/ml)/geometric mean of MIC (μg/ml). Larger values indicate greater antimicrobial specificity.

[6] = tested on: Escherichia coli (strain DH5α); type: cell-based; settings: LB medium
Outline: as §3

| Molecule | MIC P. aeruginosa MDR clinical isolate PEJ2.6 [1] | MIC P. aeruginosa MDR clinical isolate PEJ9.1 [1] | MIC P. aeruginosa MDR clinical isolate ZEM1A [1] | MIC (MH) (P. aeruginosa PA01 (WT)) | MIC PAO1 (P. aeruginosa PA01 (WT)) | MIC (MH + 30% human serum) (PAO1) | MIC A. baumannii ATCC19606 (Acinetobacter baumannii) | MIC S. aureus COL [2] | MIC P. aeruginosa MDR clinical isolate ZEM9A [1] | MIC P. aeruginosa PAO1 [3] | MIC B. subtilis BR151 [4] | MHC (minimal haemolytic concentration) [5] | MIC E. coli DH5α [6] |
| --- | --- | --- | --- | --- | --- | --- | --- | --- | --- | --- | --- | --- | --- |
| CCCCCCCCCC(=O)NCCCC[C@H](NC(=O)[C@H](CC(C)C)NC(=O)[C@H](CCCCN)NC(=O)[C@H](CCCCNC(=O)[C@H](CC(C)C)NC(=O)[C@H](CCCCN)NC(=O)[C@H](CCCCNC(=O)[C@H](CC(C)C)NC(=O)[C@@H](N)CCCCN)NC(=O)[C@H](CC(C)C)NC(=O)[C@@H](N)CCCCN)NC(=O)[C@H](CC(C)C)NC(=O)[C@H](CCCCN)NC(=O)[C@H](CCCCNC(=O)[C@H](CC(C)C)NC(=O)[C@@H](N)CCCCN)NC(=O)[C@H](CC(C)C)NC(=O)[C@@H](N)CCCCN)C(N)=O [Compound G2KLC10, (KL)4(KKL)2(KKL-CO(CH2)8CH3)] (I: H-KLK([Leu-Lys])KLKKLK(Decanoyl)-NH2 / II: H-KLK([Leu-Lys])KL; amide I:6-II:C; N-terminus assumed) | 8 µg/mL (≈ 3.37 µM) | 64 µg/mL (≈ 27 µM) | 4 µg/mL (≈ 1.69 µM) | 4 µg/mL (≈ 1.69 µM) | 8 µg/mL (≈ 3.37 µM) | 8 to 16 µg/mL | 16 µg/mL (≈ 6.74 µM) | 64 µg/mL (≈ 27 µM) |  |  |  |  |  |
| CC(C)C[C@H](NC(=O)[C@H](CCCCN)NC(=O)[C@H](CCCCNC(=O)[C@H](CC(C)C)NC(=O)[C@H](CCCCN)NC(=O)[C@H](CCCCNC(=O)[C@H](CC(C)C)NC(=O)[C@@H](N)CCCCN)NC(=O)[C@H](CC(C)C)NC(=O)[C@@H](N)CCCCN)NC(=O)[C@H](CC(C)C)NC(=O)[C@H](CCCCN)NC(=O)[C@H](CCCCNC(=O)[C@H](CC(C)C)NC(=O)[C@@H](N)CCCCN)NC(=O)[C@H](CC(C)C)NC(=O)[C@@H](N)CCCCN)C(N)=O [Compound G2KL] (I: H-KLK([Leu-Lys])KLKKL-NH2 / II: H-KLK([Leu-Lys])KL; amide I:6-II:C; N-terminus assumed) | >64 µg/mL | >64 µg/mL | >64 µg/mL |  | >64 µg/mL |  | >64 µg/mL | >64 µg/mL | >64 µg/mL |  |  |  |  |
| CC(C)C[C@H](NC(=O)[C@H](CCCCN)NC(=O)[C@H](CCCCNC(=O)[C@H](CC(C)C)NC(=O)[C@H](CCCCN)NC(=O)[C@H](CCCCNC(=O)[C@H](CC(C)C)NC(=O)[C@H](CCCCN)NC(=O)[C@@H](N)CCCCN)NC(=O)[C@H](CC(C)C)NC(=O)[C@H](CCCCN)NC(=O)[C@@H](N)CCCCN)NC(=O)[C@H](CC(C)C)NC(=O)[C@H](CCCCN)NC(=O)[C@H](CCCCNC(=O)[C@H](CC(C)C)NC(=O)[C@H](CCCCN)NC(=O)[C@@H](N)CCCCN)NC(=O)[C@H](CC(C)C)NC(=O)[C@H](CCCCN)NC(=O)[C@@H](N)CCCCN)C(N)=O [MSt-119, (KKL)4(KKL)2(KKL)] (I: H-KKLK([Leu-Lys-Lys])KLKKL-NH2 / II: H-KKLK([Leu-Lys-Lys])KL; amide I:7-II:C) |  |  |  |  |  |  |  |  |  | 3 µg/mL (≈ 1.15 µM) | 20 µg/mL (≈ 7.68 µM) | 677 µg/mL |  |
| CCCCCCCCCC(=O)NCCCC[C@H](NC(=O)[C@H](CC(C)C)NC(=O)[C@H](CCCCN)NC(=O)[C@H](CCCCNC(=O)[C@H](CC(C)C)NC(=O)[C@H](CCN)NC(=O)[C@H](CCCCNC(=O)[C@H](Cc1ccccc1)NC(=O)[C@@H](N)CCCN)NC(=O)[C@H](Cc1ccccc1)NC(=O)[C@@H](N)CCCN)NC(=O)[C@H](CC(C)C)NC(=O)[C@H](CCN)NC(=O)[C@H](CCCCNC(=O)[C@H](Cc1ccccc1)NC(=O)[C@@H](N)CCCN)NC(=O)[C@H](Cc1ccccc1)NC(=O)[C@@H](N)CCCN)C(N)=O [TNS-122, (OrnF)4(KDabL)2(KKLK-CO(CH2)8CH3] (I: H-[Orn]FK([Phe-Orn])[Dab]LKKLK(Decanoyl)-NH2 / II: H-[Orn]FK([Phe-Orn])[Dab]L; amide I:6-II:C; N-terminus assumed) | 4 µg/mL (≈ 1.67 µM) | 32 µg/mL (≈ 13.3 µM) | 4 µg/mL (≈ 1.67 µM) | 2 µg/mL (≈ 0.834 µM) | 4 (8) μg/mL | 8 µg/mL | 8 to 16 µg/mL | 8 to 16 µg/mL | 8 µg/mL (≈ 3.34 µM) |  |  |  |  |
| CCCCCCCCCC(=O)NCCCC[C@H](NC(=O)[C@H](CC(C)C)NC(=O)[C@H](CCCCN)NC(=O)[C@H](CCCCNC(=O)[C@H](Cc1ccccc1)NC(=O)[C@H](CCN)NC(=O)[C@H](CCCCNC(=O)[C@H](CC(C)C)NC(=O)[C@@H](N)CCCN)NC(=O)[C@H](CC(C)C)NC(=O)[C@@H](N)CCCN)NC(=O)[C@H](Cc1ccccc1)NC(=O)[C@H](CCN)NC(=O)[C@H](CCCCNC(=O)[C@H](CC(C)C)NC(=O)[C@@H](N)CCCN)NC(=O)[C@H](CC(C)C)NC(=O)[C@@H](N)CCCN)C(N)=O [TNS-123, (OrnL)4(KDabF)2(KKLK-CO(CH2)8CH3)] (I: H-[Orn]LK([Leu-Orn])[Dab]FKKLK(Decanoyl)-NH2 / II: H-[Orn]LK([Leu-Orn])[Dab]F; amide I:6-II:C; N-terminus assumed) | 16 µg/mL (≈ 6.87 µM) | >64 µg/mL | 4 µg/mL (≈ 1.72 µM) | 2 µg/mL (≈ 0.859 µM) | 4 to 8 µg/mL | 8 to 16 µg/mL | 32 µg/mL (≈ 13.7 µM) | 32 to 64 µg/mL | 8 µg/mL (≈ 3.43 µM) |  |  |  |  |
| (DabL)8(KDabW)4(KDabW)2(KDabL) [MSt-204] |  |  |  |  |  |  |  |  |  | 3 µg/mL | 2 µg/mL | 146 µg/mL | 2 µg/mL |
| (KLL)4(KKLL)2(KKLL) [MIS-02] |  |  |  |  |  |  |  |  |  | 3 µg/mL | 1 µg/mL | 15 µg/mL |  |
| (LA)8(KLK)4(KLA)2(KKL) [MSt-120] |  |  |  |  |  |  |  |  |  | 14 µg/mL |  | 584 µg/mL | considerably less active |
